Results from patent EP2272817A1, “PAI-1 INHIBITOR” (Institute of Medicinal Molecular Design, Inc., priority 2008, dated 2009).

What follows are molecules tested against recombinant human PAI-1 (Homo sapiens, UniProt P05121) (assay: Test Example 2: Human PAI-1 Inhibitory Activity (pH 7.4 HEPES buffer, 10 minutes incubation with two-chain tPA)). Conditions: read-out: Inhibition Rate of PAI-1 Activity (%).
Type: biochemical
Set-up: purchased Molecular Innovations, Inc
Protocol: 0.1 M HEPES, 0.1 M NaCl. 1 mM EDTA. 0.1 % Polyethylene glycol 8,000 (Hampton Research Corporation),
2 mM Dimethyldecylphoshine oxide [Apo-10] (Fluka Corporation)

Chain of recombinant human PAI-1 (P05121 24-402): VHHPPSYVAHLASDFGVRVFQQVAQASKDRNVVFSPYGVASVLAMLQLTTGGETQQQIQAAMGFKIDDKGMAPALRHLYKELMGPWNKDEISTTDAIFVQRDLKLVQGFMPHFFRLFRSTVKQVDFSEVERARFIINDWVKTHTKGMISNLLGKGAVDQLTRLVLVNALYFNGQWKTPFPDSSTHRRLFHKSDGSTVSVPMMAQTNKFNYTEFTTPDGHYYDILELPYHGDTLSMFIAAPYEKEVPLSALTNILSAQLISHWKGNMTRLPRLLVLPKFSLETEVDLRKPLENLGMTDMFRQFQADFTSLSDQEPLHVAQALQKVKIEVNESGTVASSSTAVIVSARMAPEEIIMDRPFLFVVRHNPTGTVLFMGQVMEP

inhibition at 0.1 µM	inhibition at 0.3 µM	inhibition at 1 µM	inhibition at 3 µM	inhibition at 10 µM	inhibition at 25 µM	Structure (SMILES)
15%	9%	26%	> 99%	–	–	CC(C)(C)Oc1ccc(Oc2cc(-c3ccc(OC(F)(F)F)cc3)ccc2CCC(=O)O)cc1 [Compound 473]
7%	12%	52%	> 99%	–	–	CC(CCOc1ccc(-c2ccc(OC(F)(F)F)cc2)cc1OCc1ccc(C(C)(C)C)cc1)C(=O)O (stereo not drawn) [Compound 482]
6%	9%	84%	> 99%	–	–	CC(C)(C)[C@H]1CC[C@H](CN(C(=O)C(=O)O)c2ccc(-c3ccc(OC(F)(F)F)cc3)cc2)CC1 [Compound 679]
–	–	0%	14%	57%	> 99%	CC(C)(C)c1ccc(CN(C(=O)C(=O)O)c2ccc(N3CCN(c4ccccc4)CC3)cc2)cc1 [Compound 627]
18%	9%	48%	98%	–	–	O=C(O)CCc1ccc(-c2ccc(OC(F)(F)F)cc2)cc1OCCCSc1ccccc1 [Compound 508]
–	–	73%	95%	94%	90%	CC(C)(C)c1ccc(COc2ccc(N3CCN(c4ccc(OC(F)(F)F)cc4)CC3)cc2/C=C/C(=O)O)cc1 [Compound 418]
13%	21%	84%	> 99%	–	–	CN(CC(=O)O)c1ccc(-c2ccc(OC(F)(F)F)cc2)cc1Oc1ccc(C(C)(C)C)cc1 [Compound 534]
1%	4%	44%	> 99%	–	–	Cc1cc(C)cc(-c2ccc(CCC(=O)O)c(Oc3ccc(C(C)(C)C)cc3)c2)c1 [Compound 498]
–	–	26%	54%	> 99%	> 99%	CN(C(=O)c1ccc(OC(F)(F)F)cc1)c1ccc(OCc2ccc(C(C)(C)C)cc2)c(CCC(=O)O)c1 [Compound 416]
7%	8%	76%	> 99%	–	–	CCCCc1ccc(-c2ccc(OCC(=O)O)c(Oc3ccc(C(C)(C)C)cc3)c2)cc1 [Compound 443]
–	–	6%	64%	> 99%	> 99%	CC(C)(C)c1ccc(CN(C(=O)C(=O)O)c2ccc(C(=O)Nc3ccc(OC(F)(F)F)cc3)cc2)cc1 [Compound 617]
0%	4%	38%	> 99%	–	–	CCCCCOc1cc(-c2ccc(OC(F)(F)F)cc2)cc(OCCCCC)c1OCC(=O)O [Compound 424]
0%	3%	26%	98%	–	–	O=C(O)/C=C/c1ccc(-c2ccc(OC(F)(F)F)cc2)cc1OCCCOCc1ccccc1 [Compound 487]
–	–	9%	18%	78%	> 99%	O=C(O)CC(=O)N(Cc1ccccc1)c1ccc(-c2ccc(OC(F)(F)F)cc2)cc1F [Compound 602]
9%	8%	67%	> 99%	–	–	CC(C)(C)[C@H]1CC[C@H](N(C(=O)C(=O)O)c2ccc(-c3ccc(OC(F)(F)F)cc3)cc2)CC1 [Compound 665]
17%	22%	80%	> 99%	–	–	CC(C)(C)c1ccc(-c2ccc(CCC(=O)O)c(Oc3ccc(OC(F)(F)F)cc3)c2)cc1 [Compound 480]
1%	8%	63%	> 99%	–	–	CC(C)Oc1ccc(-c2ccc(OCC(=O)O)c(Oc3ccc(C(C)(C)C)cc3)c2)cc1 [Compound 460]
2%	9%	78%	> 99%	–	–	O=C(O)/C=C/c1ccc(-c2ccc(OC(F)(F)F)cc2)cc1OC(c1ccccc1)c1ccccc1 [Compound 506]
4%	0%	25%	97%	–	–	CC(C)(C)c1ccc(Oc2ccc(Nc3ccc(OC(F)(F)F)cc3)cc2CCC(=O)O)cc1 [Compound 432]
17%	21%	93%	> 99%	–	–	CC(C)(C)c1ccc(Sc2cc(-c3ccc(OC(F)(F)F)cc3)ccc2CC(=O)O)cc1 [Compound 530]
10%	64%	96%	97%	–	–	CCCCCOc1cc(-c2ccc(OC(F)(F)F)cc2)ccc1CN(CC(=O)O)c1ccc(C(C)(C)C)cc1 [Compound 649]
13%	27%	97%	93%	–	–	CC(C)(C)c1ccc(Oc2cc(-c3cccc(OC(F)(F)F)c3)ccc2/C=C/C(=O)O)cc1 [Compound 503]
15%	20%	99%	> 99%	–	–	CCCCCN(C(=O)C(=O)O)c1cc(-c2ccc(OC(F)(F)F)cc2)ccc1OCCCOc1ccccc1 [Compound 657]
–	–	43%	98%	> 99%	95%	CC(C)(C)c1ccc(-c2ccc(CN(C(=O)C(=O)O)c3ccc(OC(F)(F)F)cc3)cc2)cc1 [Compound 615]
4%	15%	38%	86%	–	–	O=C(O)CCCCCCCCOc1ccc(-c2ccc(OC(F)(F)F)cc2)cc1N(CCCCc1ccccc1)C(=O)C(=O)O [Compound 646]
12%	26%	> 99%	96%	–	–	O=C(O)C(=O)N(CCCCc1ccccc1)c1cc(-c2ccc(OC(F)(F)F)cc2)ccc1OC1CCCCCC1 [Compound 659]
21%	18%	63%	> 99%	–	–	CC(C)(C)c1ccc(Oc2cc(-c3ccc(Cl)cc3)ccc2OCC(=O)O)cc1 [Compound 457]
11%	33%	90%	> 99%	–	–	CC(C)(C)c1ccc(-c2ccc(/C=C/C(=O)O)c(Oc3ccc(OC(F)(F)F)cc3)c2)cc1 [Compound 478]
7%	4%	60%	> 99%	–	–	O=C(O)C(=O)N(CCCCc1ccccc1)c1cc(-c2ccc(OC(F)(F)F)cc2)ccc1OCCCCCO [Compound 676]

Structure (SMILES)	inhibition at 0.1 µM	inhibition at 0.3 µM	inhibition at 1 µM	inhibition at 3 µM	inhibition at 10 µM	inhibition at 25 µM
CCCCCOc1ccc(-c2ccc(OC(F)(F)F)cc2)cc1N(CCCSc1ccccc1)C(=O)C(=O)O [Compound 357]	0%	2%	69%	> 99%	–	–
CCCCCCCCCOc1cc(N(CCCCc2ccccc2)C(=O)C(=O)O)ccc1-c1ccc(OC(F)(F)F)cc1 [Compound 389]	65%	97%	> 99%	> 99%	–	–
CC(C)(C)c1ccc(Oc2cc(-c3cccc(OC(F)(F)F)c3)ccc2OCC(=O)O)cc1 [Compound 331]	2%	1%	83%	98%	–	–
CCCCCCC(Oc1cc(-c2ccc(OC(F)(F)F)cc2)ccc1Oc1ccccc1)C(=O)O (stereo not drawn) [Compound 322]	0%	4%	69%	92%	–	–
CCCCCOc1ccc(-c2ccc(Cl)cc2)cc1N(CCCCc1ccccc1)C(=O)C(=O)O [Compound 361]	9%	5%	68%	97%	–	–
CC(C)(C)Oc1ccc(-c2ccc(OC(F)(F)F)cc2)cc1N(CCCCc1ccccc1)C(=O)C(=O)O [Compound 373]	0%	0%	28%	90%	–	–
CCCCCOc1cc(-c2cccc(C)c2)ccc1N(CCCCc1ccccc1)C(=O)C(=O)O [Compound 376]	6%	15%	62%	95%	–	–
O=C(O)C(=O)N(CCCCc1ccccc1)c1cc(-c2ccc(OC(F)(F)F)cc2)ccc1OC1CCCCC1 [Compound 368]	0%	22%	95%	85%	–	–
CC(C)(C)c1cccc(Oc2cc(-c3ccc(OC(F)(F)F)cc3)ccc2CCC(=O)O)c1 [Compound 336]	0%	5%	45%	> 99%	–	–
CCCCCCCCCOc1cc(-c2ccc(OC(F)(F)F)cc2)ccc1N(CCCCc1ccccc1)C(=O)C(=O)O [Compound 380]	76%	96%	97%	> 99%	–	–
CCCCCOc1ccc(-c2cccc(OC(F)(F)F)c2)cc1N(CCCCc1ccccc1)C(=O)C(=O)O [Compound 391]	10%	8%	69%	89%	–	–
CCCCCCCCCOc1cc(N(Cc2ccc(C(C)(C)C)cc2)C(=O)C(=O)O)ccc1-c1ccc(OC(F)(F)F)cc1 [Compound 388]	75%	> 99%	> 99%	> 99%	–	–
CC(C)(C)c1cccc(Oc2cc(-c3ccc(OC(F)(F)F)cc3)ccc2/C=C/C(=O)O)c1 [Compound 335]	4%	8%	80%	> 99%	–	–
